US11976061B2, “Preparation of benzimidazolone derivatives as novel diacylglyceride O-acyltransferase 2 inhibitors” (Merck Sharp & Dohme LLC, priority 2020, dated 2024)
pIC50: −log10 of the molar value.

Target: T1, human DGAT2 (hDGAT2) (Homo sapiens, UniProt Q96PD7)
T1 construct: made in house; host or cells: Sf-9 insect cells (baculovirus), membrane fraction
T1 sequence (Q96PD7 1-388): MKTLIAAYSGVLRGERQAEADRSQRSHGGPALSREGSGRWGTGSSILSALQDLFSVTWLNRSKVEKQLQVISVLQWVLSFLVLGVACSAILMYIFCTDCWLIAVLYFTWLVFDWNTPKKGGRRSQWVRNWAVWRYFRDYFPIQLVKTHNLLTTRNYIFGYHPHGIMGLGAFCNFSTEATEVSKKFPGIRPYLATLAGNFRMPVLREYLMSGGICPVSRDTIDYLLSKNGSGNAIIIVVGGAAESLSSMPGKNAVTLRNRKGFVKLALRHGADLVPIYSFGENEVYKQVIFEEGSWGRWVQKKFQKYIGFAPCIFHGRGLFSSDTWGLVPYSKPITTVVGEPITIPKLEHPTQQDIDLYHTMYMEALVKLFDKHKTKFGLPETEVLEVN
Test: DGAT2 Enzymatic Activity Assay
Type: biochemical
Conditions: membrane prep of Sf-9 cells expressing hDGAT2; 25 μM diolein, 5 μM 13C oleoyl-CoA; 13C18-triolein by LC/MS/MS; read-out: DGAT2 IC50
Protocol: Insect Cell Expression and Membrane Preparation
Sf-9 insect cells were maintained in Grace's insect cell culture medium with 10% heated-inactivated fetal bovine serum, 1% Pluronic F-68 and 0.14 μg/ml Kanamycine sulfate at 27° C. in a shaker incubator. After infection with untagged baculovirus expressing human DGAT2 (hDGAT2) at multiplicity of infection (MOI) 3 for 48 hours, cells were harvested. Cell pellets were suspended in buffer containing 10 mM Tris-HCl pH 7.5, 1 mM EDTA, 250 mM sucrose and Complete Protease Inhibitor Cocktail (Sigma Aldrich), and sonicated on ice. Cell debris were removed by centrifugation at 2000×g for 15 minutes. Membrane fractions were isolated by ultracentrifugation (100,000×g), resuspended in the same buffer, and frozen (−80° C.) for later use. The protein concentration was determined with the Pierce™ BCA Protein Assay Kit (Thermo Fisher Scientific). Expression of protein levels was analyzed by immunoblotting with rabbit anti-DGAT2 antibody (Abcam, ab102831) and donkey anti-rabbit IgG H&L Alexa Fluor® 647 (Abcam, ab150075) followed by detection using Typhoon FLA9000 (GE Healthcare).
LC/MS/MS analyses were performed using Thermal Fisher's LX4-TSQ Vantage system. This system consists of an Agilent binary high-performance liquid chromatography (HPLC) pump and a TSQ Vantage triple quadrupole MS/MS instrument. For each sample, 2 μL samples from the top organic layer of in-plate liquid-liquid extraction were injected onto a Thermo Betabasic C4 column (2.1 mm×20 mm, 5 μm particle size). The samples were then eluted using the following conditions; mobile phase: Isopropanol:acetonitrile/10 mM ammonium formate=50/35/15 (v/v/v), flow rate: 0.8 mL/min, temperature: 25° C. Data was acquired in positive mode using a heated electrospray ionization (HESI) interface. The operational parameters for the TSQ Vantage MS/MS instrument were a spray voltage of 3000 V, capillary temperature of 280° C., vaporizer temperature 400° C., sheath gas 45 arbitrary unit, Aux gas 10 arbitrary units, S-lens 165 and collision gas 1.0 mTorr. […] (SRM) chromatograms of ^13C18-triolein (Q1: 920.8>Q3: 621.3) and internal standard ^13C21-triolein (Q1: 923.8>Q3: 617.3) were collected for 33 sec. The peak area was integrated by Xcalibur Quan software. The ratio between the ^13C18triolein generated in the reaction and spiked in internal standard ^13C21-triolein was used to generate percentage inhibition and IC50 values. Compound percentage inhibition was calculated by the following formula: Inhibition %=1−[(compound response−low control)/(high control−low control)]×100%. Potent compounds were titrated and IC50 were calculated by 4 parameter sigmoidal curve fitting formula.
DGAT2 Enzymatic Activity Assay
DGAT2 activity was determined by measuring the amount of enzymatic product ^13C18-triolein (^13C-1,2,3-Tri(cis-9-octadecenoyl)glycerol) using the membrane prep mentioned above. The assay was carried out in ABgene 384-well assay plates in a final volume of 25 μL at rt. The assay mixture contained the following: assay buffer (100 mM Tris·Cl, pH 7.0, 20 mM MgCl2, 5% ethanol), 25 μM of diolein, 5 μM of ^13C oleoyl-CoA and 8 ng/μL of DGAT2 membrane.

pIC50	SMILES
9.00	CC(n1c(=O)n(-c2cc(OC(F)(F)F)ccc2F)c2cc(F)c(C(=O)NC3(C)CCS(=O)(=O)CC3)cc21)C(C)(C)O (single isomer, unassigned) [Example 70a, 6-fluoro-1-(2-fluoro-5-(trifluoromethoxy)phenyl)-3-(3-hydroxy-3-methylbutan-2-yl)-N-(4-methyl-1,1-dioxidotetrahydro-2H-thiopyran-4-yl)-2-oxo-2,3-dihydro-1H-benzo[d]imidazole-5-carboxamide]
7.52	CC(n1c(=O)n(-c2cc(OC(F)(F)F)ccc2F)c2cc(F)c(C(=O)NC3(C)CCS(=O)(=O)CC3)cc21)C(C)(C)O (single isomer, unassigned) [Example 70b, 6-fluoro-1-(2-fluoro-5-(trifluoromethoxy)phenyl)-3-(3-hydroxy-3-methylbutan-2-yl)-N-(4-methyl-1,1-dioxidotetrahydro-2H-thiopyran-4-yl)-2-oxo-2,3-dihydro-1H-benzo[d]imidazole-5-carboxamide]
7.15	CC(n1c(=O)n(-c2cc(OC(F)(F)F)ccc2F)c2ccc(C(=O)NC3(C)CCS(=O)(=O)CC3)cc21)C(C)(C)O (single isomer, unassigned) [Example 71a, 1-(2-fluoro-5-(trifluoromethoxy)phenyl)-3-(3-hydroxy-3-methylbutan-2-yl)-N-(4-methyl-1,1-dioxidotetrahydro-2H-thiopyran-4-yl)-2-oxo-2,3-dihydro-1H-benzo[d]imidazole-5-carboxamide]
8.27	CC(n1c(=O)n(-c2cc(OC(F)(F)F)ccc2F)c2ccc(C(=O)NC3(C)CCS(=O)(=O)CC3)cc21)C(C)(C)O (single isomer, unassigned) [Example 71b, 1-(2-fluoro-5-(trifluoromethoxy)phenyl)-3-(3-hydroxy-3-methylbutan-2-yl)-N-(4-methyl-1,1-dioxidotetrahydro-2H-thiopyran-4-yl)-2-oxo-2,3-dihydro-1H-benzo[d]imidazole-5-carboxamide]
8.19	CC(n1c(=O)n(-c2cc(OCC(F)F)ncc2F)c2ccc(C(=O)NC3(C)CCS(=O)(=O)CC3)cc21)C(C)(C)O (single isomer, unassigned) [Example 72a, 1-(2-(2,2-difluoroethoxy)-5-fluoropyridin-4-yl)-3-(3-hydroxy-3-methylbutan-2-yl)-N-(4-methyl-1,1-dioxidotetrahydro-2H-thiopyran-4-yl)-2-oxo-2,3-dihydro-1H-benzo[d]imidazole-5-carboxamide]
8.18	CC(n1c(=O)n(-c2cc(OCC(F)F)ncc2F)c2ccc(C(=O)NC3(C)CCS(=O)(=O)CC3)cc21)C(C)(C)O (single isomer, unassigned) [Example 72b, 1-(2-(2,2-difluoroethoxy)-5-fluoropyridin-4-yl)-3-(3-hydroxy-3-methylbutan-2-yl)-N-(4-methyl-1,1-dioxidotetrahydro-2H-thiopyran-4-yl)-2-oxo-2,3-dihydro-1H-benzo[a]imidazole-5-carboxamide]
8.59	CC(n1c(=O)n(-c2cc(OCC(F)F)ccc2F)c2ccc(C(=O)NC3(C)CCS(=O)(=O)CC3)cc21)C(C)(C)O (single isomer, unassigned) [Example 73a, 1-(5-(2,2-difluoroethoxy)-2-fluorophenyl)-3-(3-hydroxy-3-methylbutan-2-yl)-N-(4-methyl-1,1-dioxidotetrahydro-2H-thiopyran-4-yl)-2-oxo-2,3-dihydro-1H-benzo[a]imidazole-5-carboxamide]
8.21	CC(n1c(=O)n(-c2cc(OCC(F)F)ncc2F)c2cc(F)c(C(=O)NC3(C)CCS(=O)(=O)CC3)cc21)C(C)(C)O (single isomer, unassigned) [Example 74a, 1-(2-(2,2-difluoroethoxy)-5-fluoropyridin-4-yl)-6-fluoro-3-(3-hydroxy-3-methylbutan-2-yl)-N-(4-methyl-1,1-dioxidotetrahydro-2H-thiopyran-4-yl)-2-oxo-2,3-dihydro-1H-benzo[d]imidazole-5-carboxamide]
8.19	CC(n1c(=O)n(-c2cc(OCC(F)F)ncc2F)c2cc(F)c(C(=O)NC3(C)CCS(=O)(=O)CC3)cc21)C(C)(C)O (single isomer, unassigned) [Example 74b, 1-(2-(2,2-difluoroethoxy)-5-fluoropyridin-4-yl)-6-fluoro-3-(3-hydroxy-3-methylbutan-2-yl)-N-(4-methyl-1,1-dioxidotetrahydro-2H-thiopyran-4-yl)-2-oxo-2,3-dihydro-1H-benzo[d]imidazole-5-carboxamide]
8.82	CC(n1c(=O)n(-c2cc(OCC(F)F)ccc2F)c2cc(F)c(C(=O)NC3(C)CCS(=O)(=O)CC3)cc21)C(C)(C)O (single isomer, unassigned) [Example 75a, 1-(5-(2,2-difluoroethoxy)-2-fluorophenyl)-6-fluoro-3-(3-hydroxy-3-methylbutan-2-yl)-N-(4-methyl-1,1-dioxidotetrahydro-2H-thiopyran-4-yl)-2-oxo-2,3-dihydro-1H-benzo[d]imidazole-5-carboxamide]
8.62	CC(n1c(=O)n(-c2cc(OCC(F)F)ccc2F)c2cc(F)c(C(=O)NC3(C)CCS(=O)(=O)CC3)cc21)C(C)(C)O (single isomer, unassigned) [Example 75b, 1-(5-(2,2-difluoroethoxy)-2-fluorophenyl)-6-fluoro-3-(3-hydroxy-3-methylbutan-2-yl)-N-(4-methyl-1,1-dioxidotetrahydro-2H-thiopyran-4-yl)-2-oxo-2,3-dihydro-1H-benzo[d]imidazole-5-carboxamide]
7.10	CC(n1c(=O)n(-c2cccc(OC(F)(F)C(F)F)c2)c2ccc(C(=O)NC3(C)CS(=O)(=O)C3)cc21)C(C)(C)O (single isomer, unassigned) [Example 76a, 3-(3-hydroxy-3-methylbutan-2-yl)-N-(3-methyl-1,1-dioxidothietan-3-yl)-2-oxo-1-(3-(1,1,2,2-tetrafluoroethoxy)phenyl)-2,3-dihydro-1H-benzo[d]imidazole-5-carboxamide]
8.10	CC(n1c(=O)n(-c2cccc(OC(F)(F)C(F)F)c2)c2ccc(C(=O)NC3(C)CS(=O)(=O)C3)cc21)C(C)(C)O (single isomer, unassigned) [Example 76b, 3-(3-hydroxy-3-methylbutan-2-yl)-N-(3-methyl-1,1-dioxidothietan-3-yl)-2-oxo-1-(3-(1,1,2,2-tetrafluoroethoxy)phenyl)-2,3-dihydro-1H-benzo[d]imidazole-5-carboxamide]
8.25	CC(n1c(=O)n(-c2cccc(OC(F)(F)C(F)F)c2)c2ccc(C(=O)NC3(C)CCS(=O)(=O)CC3)cc21)C(C)(C)O (single isomer, unassigned) [Example 77a, 3-(3-hydroxy-3-methylbutan-2-yl)-N-(4-methyl-1,1-dioxidotetrahydro-2H-thiopyran-4-yl)-2-oxo-1-(3-(1,1,2,2-tetrafluoroethoxy)phenyl)-2,3-dihydro-1H-benzo[d]imidazole-5-carboxamide]
8.01	CC(n1c(=O)n(-c2cccc(OC(F)(F)C(F)F)c2)c2ccc(C(=O)NC3(C)CCS(=O)(=O)CC3)cc21)C(C)(C)O (single isomer, unassigned) [Example 77b, 3-(3-hydroxy-3-methylbutan-2-yl)-N-(4-methyl-1,1-dioxidotetrahydro-2H-thiopyran-4-yl)-2-oxo-1-(3-(1,1,2,2-tetrafluoroethoxy)phenyl)-2,3-dihydro-1H-benzo[d]imidazole-5-carboxamide]
